Test results published in patent US6063803A, “Octahydropyrrolo-[3,4-c]carbazoles useful as analgesic agents” (Ortho-McNeil Pharmaceutical, Inc., priority 1999, dated 2000).
Where a name gives a salt, the structure may show the parent alone.

Experiment: rat air-induced writhing (abdominal constriction) assay
Format: in vivo, rats
Details: Rattus norvegicus, po
Procedure: The analgesic activity was determined in another model using rats as the test animal. The procedure was essentially described by P. VonVoightlander et al. in Air-induced Writhing, a Rapid Broad Spectrum Assay for Analgesics, Drug Dev. Res., 2, 577-81, (1982). The test compound or vehicle was administered p.o. (2 mL/kg) and after 30 min, the animals received an i.p. injection of air (10 mL). The animals were placed into individual observation chambers and observed for 30 min for the occurrence of abdominal constriction as defined above. The percent inhibition of this response was calculated as follows. The % inhibition of response, i.e., % analgesia is equal to the number nonresponding drug-treated animals×100 divided by the number of animals in the group. […] This effect lasted for 2-3 hours.

Structure (SMILES)	ED50
COc1cccc(C2(O)CCCCC2CN(C)C)c1 (stereo not shown) [tramadol, reference compound]	1.7 mg/kg

Experiment: mouse acetylcholine bromide-induced abdominal constriction assay
Format: in vivo, mice (Male, Cr1:CD-1)
Details: Mus musculus
Procedure: The analgesic activity of compounds of Formula I were determined in the following in vivo assay. The procedure was run essentially as described by H. Collier et al. in B. J. Pharmacol. Chemother., 32: 295-310, 1968, with minor modifications. Mice (Male, Cr1:CD-1, Charles River Laboratories) were used in the following example. The test drugs or appropriate vehicle were administered orally (10 mL/kg, p.o.) or subcutaneously (10 mL/kg, s.c.) and 30 minutes later the animal received an intraperitoneal (i.p.) injection of 5.5 mg/kg acetylcholine bromide. The mice were then placed in glass bell jars and observed for a ten minute observation period for the occurrence of an abdominal constriction response (defined as a wave of constriction and elongation passing caudally along the abdominal wall, accompanied by a twisting of the trunk and followed by extension of the hind limbs). The percent inhibition of this response to antinociceptive stimulus (equated to % analgesia) was calculated as follows: The % inhibition of response, i.e., % analgesia is equal to the number of non-responding drug-treated animals×100 divided by the number of animals in the group.
The ED50 values and their 95% fiducial limits were determined by a computer assisted probit analysis. […] This effect lasted for 4-5 hours.
Table A lists the % inhibition for some compounds of the invention. Unless otherwise indicated the compounds were administered s.c. at 30 mg/kg. [drawing 63]

Structure (SMILES)	ED50
COc1cccc(C2(O)CCCCC2CN(C)C)c1 (stereo not shown) [tramadol, reference compound]	5.4 mg/kg

Same assay, conditions: Mus musculus, 0.5 h; 30 mg/kg po; acetylcholine bromide 5.5 mg/kg i.p. 30 min later; read-out: % inhibition @ 30 mg/kg (po)

Structure (SMILES)	responders at 30 mg/kg	% of mice protected from abdominal constriction (non-responders) at 30 mg/kg
CN1C[C@@H]2CCc3[nH]c4cccc(F)c4c3[C@@H]2C1 (relative stereo) [Compound 44]	100%	
CN1C[C@@H]2CCc3[nH]c4cc(F)ccc4c3[C@@H]2C1 (relative stereo) [Compound 30, (±)-3aα,10cα-4,5,6,10c-Octahydro-8-fluoro-2-methylpyrrolo[3,4-c]carbazole Fumarate [1:1.5]]	100%	
CN1C[C@@H]2CCc3[nH]c4ccccc4c3[C@H]2C1 (relative stereo) [Compound 72, (±)-3aα,10cβ-1,2,3,3a,4,5,6,10c-Octahydro-2-methylpyrrolo-[3,4-c]carbazole Fumarate [1.0:0.55]]	100%	
Cc1cccc2c3c([nH]c12)CC[C@H]1CN(C)C[C@@H]31 (relative stereo) [Compound 40, (±)-3aα,10cα,-1,2,3,3a,4,5,6,10c-octahydro-2,7-dimethylpyrrolo[3,4-c]carbazole]	87%	
CC(C)N1C[C@@H]2CCc3[nH]c4ccccc4c3[C@@H]2C1 (relative stereo) [Compound 65, (±)-3aα,10cα-4,5,6,10c-Octahydro-2-(1-methylethyl)pyrrolo[3,4-c]carbazole Hydrochloride Hydrate [1.0:1.0:0.13]]		93%
CN1C[C@@H]2CCc3[nH]c4c(F)cccc4c3[C@@H]2C1 (relative stereo) [Compound 47]	93%	
C[C@@H]1C[C@H]2CN(C)C[C@H]2c2c1[nH]c1ccccc21 (relative stereo) [Compound 88, (±)-3aα,5α,10cα-4,5,6,10c-Octahydro-2,5-dimethylpyrrolo[3,4-c]carbazole]	93%	
CN1C[C@@H]2CCc3[nH]c4cccc(Cl)c4c3[C@@H]2C1 (relative stereo) [Compound 38]	87%	

Same assay, conditions: Mus musculus, sc, 0.5 h; 30 mg/kg s.c.; acetylcholine bromide 5.5 mg/kg i.p. 30 min later; read-out: % inhibition @ 30 mg/kg

Structure (SMILES)	% of mice protected from abdominal constriction (non-responders) at 30 mg/kg	responders at 30 mg/kg
CN1C[C@@H]2CCc3[nH]c4c(C(F)(F)F)cccc4c3[C@@H]2C1 (relative stereo) [Compound 48]	100%	
CN1C[C@@H]2CCc3[nH]c4c(Cl)cccc4c3[C@@H]2C1 (relative stereo) [Compound 35]		93%
c1ccc2c3c([nH]c2c1)CC[C@H]1CNC[C@@H]31 (relative stereo) [Compound 64, (±)-3aα,10cα-4,5,6,10c-Octahydropyrrolo[3,4-c]carbazole]		80%
CN1C[C@@H]2CCc3[nH]c4ccc(Br)cc4c3[C@@H]2C1 (relative stereo) [Compound 36]		100%
CN1CC2CCc3[nH]c4ccccc4c3C2C1 (single isomer, unassigned) [Compound 57]		100%
CN1C[C@@H]2C(c3ccccc3)Cc3[nH]c4ccccc4c3[C@@H]2C1 (mixture of isomers) [Compound 75, (±)-3aα,10cα-1,2,3,3a,4,5,6,10c-Octahydro-2-methyl-4-phenylpyrrolo-[3,4-c]carbazole Fumarate [1.0:0.55]]	100%	
CC(C)(C)N1C[C@@H]2CCc3[nH]c4ccccc4c3[C@@H]2C1 (relative stereo) [Compound 53]	100%	
C=CCN1C[C@@H]2CCc3[nH]c4ccccc4c3[C@@H]2C1 (relative stereo) [Compound 66, (±)-3aα,10cα-1,2,3,3a,4,5,6,10c-Octahydro-2-(propenyl)pyrrolo[3,4-c]carbazole Fumarate [1:0.6]]	100%	
CN1C[C@@H]2CCc3[nH]c4cc(C(F)(F)F)ccc4c3[C@@H]2C1 (relative stereo) [Compound 41]	100%	
CN1C[C@@H]2CCc3[nH]c4c(Br)cccc4c3[C@@H]2C1 (relative stereo) [Compound 45]		73%
CN1C[C@@H]2CCc3[nH]c4cc(Cl)ccc4c3[C@@H]2C1 (relative stereo) [Compound 37]		100%
CN1C[C@@H]2CCc3[nH]c4ccc(C#N)cc4c3[C@@H]2C1 (relative stereo) [Compound 73, (±)-3aα,10cα-1,2,3,3a,4,5,6,10c-Octahydro-9-cyano-2-methylpyrrolo-[3,4-c]carbazole]	100%	
Cc1ccc2c3c([nH]c2c1C)CC[C@H]1CN(C)C[C@@H]31 (relative stereo) [Compound 34]	100%	
CCc1cccc2c3c([nH]c12)CC[C@H]1CN(C)C[C@@H]31 (relative stereo) [Compound 46]	100%	
CC(C)c1ccc2[nH]c3c(c2c1)[C@@H]1CN(C)C[C@@H]1CC3 (relative stereo) [Compound 39]	27%	
CN1C[C@@H]2CCc3[nH]c4ccc(F)cc4c3[C@@H]2C1 (relative stereo) [Compound 31]		93%
CN1C[C@@H]2CCc3[nH]c4c(Cl)ccc(Cl)c4c3[C@@H]2C1 (relative stereo) [Compound 33]	33%	
CN1C[C@@H]2CCc3[nH]c4cccc(C(F)(F)F)c4c3[C@@H]2C1 (relative stereo) [Compound 42]	60%	
CN1C[C@@H]2CCc3[nH]c4cc(F)cc(F)c4c3[C@@H]2C1 (relative stereo) [Compound 50]	100%	
C[C@H]1C[C@H]2CN(C)C[C@H]2c2c1[nH]c1ccccc21 (relative stereo) [Compound 89, (±)-3aα,5β,10cα-4,5,6,10c-Octahydro-2,5-dimethylpyrrolo[3,4-c]carbazole]		100%
Cc1cc(C)c2c3c([nH]c2c1)CC[C@H]1CN(C)C[C@@H]31 (relative stereo) [Compound 49]	100%	
C[C@@H]1[C@@H]2c3c([nH]c4ccccc34)CC[C@@H]2CN1C (relative stereo) [Compound 69, (±)-1α,3aβ,10cβ-1,2,3,3a,4,5,6,10c-Octahydro-1,2-dimethylpyrrolo-[3,4-c]carbazole]		100%
COc1cccc2c3c([nH]c12)CC[C@H]1CN(C)C[C@@H]31 (relative stereo) [Compound 32]	100%	

Experiment: mouse hot plate assay (48° C.)
Format: in vivo, mice
Details: Mus musculus, po, 0.5 h
Procedure: The test was essentially described by N. Eddy and D. Leimbach, Synthetic Analgesics II Dithienylbutenyl- and Dithienylbutylamines, J. Pharmacol. Exp. Ther., 107, 385-93 (1953) and J. O'Callaghan and S. Holtzman, Qualification of the Analgesic Activity of Narcotic Antagonists by a Modified Hot-Plate Procedure, J. Pharmacol. Exp. Ther, 192, 497-505 (1975), with minor modifications. Mice were placed on a heated surface (48° C.) and the time interval (seconds) between placement and a shaking, licking, or tucking of the hind paw was recorded as the predrug latency response. This procedure was repeated 30 minutes after the administration of a test compound (p.o., 10 mL/kg). The percent maximum possible antinociceptive effect (% MPE) was determined using the following formula: % MPE=100×(Test latency-Predrug latency)/(Cutoff time-Predrug Latency), using the predrug latency of each animal and cutoff time established to prevent injury to the animal. The cutoff time was 90s.
The ED50 value and 95% confidence intervals were determined using a computer-assisted linear regression analysis of the dose-response curve, including an analysis of variance test for linearity. Oral dosing of Compound 58 produced an analgesic effect after 15 min. This effect lasted for one hour.

Structure (SMILES)	ED50
COc1cccc(C2(O)CCCCC2CN(C)C)c1 (stereo not shown) [tramadol, reference compound]	28.3 mg/kg
